Read-outs that look alike come from different tables or passages of the source.
Key:
PARG = PARG (Homo sapiens, UniProt Q86W56); experiment: Biochemical assay (PARG, TFMU-ADPr substrate)
[1] = system: Human breast squamous carcinoma cells HCC1806; experiment: Cell function assay (In-Cell Western, PAR/pADPr after MMS); assay type: cell-based; conditions: read-out: IC50 (nM) in cell function assay
Procedure: 2. Cell Function Assay (In-Cell Western)
• 1) Human breast squamous carcinoma cells HCC1806 (ATCC) were seeded to the 384-well plate (Corning, #3764) at 20,000 cells/well, incubated for 24 h in a CO2 (5%) incubator at 37° C. to allow for complete adherence of the cells; • 2) 120 nL compounds or DMSO were added to the 384-well plate by Echo 550 (LABCYTE, #550) (final concentrations of compounds: 30000 nM, 10000 nM, 3000 nM, 1000 nM, 300 nM, 100 nM, 30 nM, 10 nM, 3 nM, 1 nM, 0 nM), and then the cells were incubated for 1 h in a CO2 (5%) incubator at 37° C.; • 3) 40 nL MMS (methyl mesylate, Sigma, #129925)(final concentration: 0.5 mM) was added to the plate by Echo 550, and the cells were treated for 1 h in a CO2 (5%) incubator at 37° C.

HCC1806 = experiment: Cell viability assay (CellTiter-Glo); assay type: cell-based, Human; conditions: HCC1806, 7 days, CellTiter-Glo, read-out: IC50 (nM) in cell viability assay
[2] = 4 nM PARG, 66.2 uM TFMU-ADPr, 3 min at room temperature
[3] = HCC1806, In-Cell Western, MMS treatment
[4] = HCC1806, compound 1 h then 0.5 mM MMS 1 h, PAR/pADPr antibody, In-Cell Western

Sequence of PARG (Q86W56 whole entry): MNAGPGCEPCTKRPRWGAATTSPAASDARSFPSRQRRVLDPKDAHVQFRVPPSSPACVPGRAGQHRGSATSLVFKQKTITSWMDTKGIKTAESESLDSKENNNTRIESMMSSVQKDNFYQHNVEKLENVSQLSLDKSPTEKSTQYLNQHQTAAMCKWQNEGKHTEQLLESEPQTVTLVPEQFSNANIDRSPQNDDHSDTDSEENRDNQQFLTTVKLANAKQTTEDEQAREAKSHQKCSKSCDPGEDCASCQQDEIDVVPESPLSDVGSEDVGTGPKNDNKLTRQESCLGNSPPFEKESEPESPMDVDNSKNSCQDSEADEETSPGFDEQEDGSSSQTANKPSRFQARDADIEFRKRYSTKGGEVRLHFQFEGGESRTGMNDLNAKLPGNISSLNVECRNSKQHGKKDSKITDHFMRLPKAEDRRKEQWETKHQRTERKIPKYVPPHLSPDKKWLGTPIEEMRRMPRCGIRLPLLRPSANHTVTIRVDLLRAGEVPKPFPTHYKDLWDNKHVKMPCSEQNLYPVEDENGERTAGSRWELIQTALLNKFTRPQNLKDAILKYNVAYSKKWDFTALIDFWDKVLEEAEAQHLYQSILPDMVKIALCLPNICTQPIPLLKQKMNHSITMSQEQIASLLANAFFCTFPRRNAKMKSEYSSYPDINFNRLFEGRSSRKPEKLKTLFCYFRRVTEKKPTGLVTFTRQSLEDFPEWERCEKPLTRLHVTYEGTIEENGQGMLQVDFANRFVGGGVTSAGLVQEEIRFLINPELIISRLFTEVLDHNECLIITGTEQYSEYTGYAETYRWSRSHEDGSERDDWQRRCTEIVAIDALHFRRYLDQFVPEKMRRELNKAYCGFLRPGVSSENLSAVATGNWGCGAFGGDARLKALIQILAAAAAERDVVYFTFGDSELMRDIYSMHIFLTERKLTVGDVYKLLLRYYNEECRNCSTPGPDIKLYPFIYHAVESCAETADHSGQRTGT

IC50 (PARG; [2]) [nM]	IC50 (PARG; PARG, TFMU-ADPr substrate) [nM]	IC50 [1, 3] [nM]	IC50 [1, 4] [nM]	IC50 (HCC1806; Homo sapiens, HCC1806, 168 h) [nM]	IC50 (HCC1806) [nM]	Compound
< 100	8.22	9.94	< 100			[2H]c1nc(-c2nnc(C(F)F)s2)n2cc(S(=O)(=O)NC3(CF)COC3)c(F)c(N3CCN(C(=O)C(C)C)CC3)c12 [Example 154, 3-(5-(difluoromethyl)-1,3,4-thiadiazol-2-yl)-7-fluoro-N-(3-(fluoromethyl)oxetan-3-yl)-8-(4-isobutyrylpiperazin-1-yl)imidazo[1,5-a]pyridine-6-sulfonamide-1-d]
< 100	8.37	309	100 to 500			N#CC1(NS(=O)(=O)c2cc(N3CCC(F)(F)CC3)c3cnc(-c4nnc(C(F)F)s4)n3c2)CC1 [Example 40, N-(1-cyanocyclopropyl)-3-(5-(difluoromethyl)-1,3,4-thiadiazol-2-yl)-8-(4,4-difluoropiperidin-1-yl)imidazo[1,5-a]pyridine-6-sulfonamide]
< 100	25.1	34.7	< 100			N#CC1(NS(=O)(=O)c2cc(N3CCC(O)CC3)c3cnc(-c4nnc(C(F)F)s4)n3c2)CC1 [Example 68, N-(1-cyanocyclopropyl)-3-(5-(difluoromethyl)-1,3,4-thiadiazol-2-yl)-8-(4-hydroxypiperidin-1-yl)imidazo[1,5-a]pyridine-6-sulfonamide]
< 100	0.84	4.7	< 100			CC(C)C(=O)N1CCN(c2cc(S(=O)(=O)NC3(CF)CC3)cn3c(-c4nnc(C(F)F)s4)ncc23)CC1 [Example 31, 3-(5-(difluoromethyl)-1,3,4-thiadiazol-2-yl)-N-(1-(fluoromethyl)cyclopropyl)-8-(4-isobutyrylpiperazin-1-yl)imidazo[1,5-a]pyridine-6-sulfonamide]
< 100	1.32	0.67	< 100			C[C@@H]1CN(c2cc(S(=O)(=O)NC3(C)CC3)cn3c(-c4nnc(C(F)F)s4)ncc23)CCN1C(=O)C1(C)CC1 [Example 71, (R)-3-(5-(difluoromethyl)-1,3,4-thiadiazol-2-yl)-8-(3-methyl-4-(1-methylcyclopropane-1-carbonyl)piperazin-1-yl)-N-(1-methylcyclopropyl)imidazo[1,5-a]pyridine-6-sulfonamide]
< 100	3.75	3.52	< 100			C[C@@H]1CN(c2cc(S(=O)(=O)NC3(C#N)CC3)cn3c(-c4nnc(C(F)F)s4)ncc23)CCN1C(=O)C1(C)CC1 [Example 62, (R)-N-(1-cyanocyclopropyl)-3-(5-(difluoromethyl)-1,3,4-thiadiazol-2-yl)-8-(3-methyl-4-(1-methylcyclopropane-1-carbonyl)piperazin-1-yl)imidazo[1,5-a]pyridine-6-sulfonamide]
< 100	16.6	11.4	< 100			C[C@H]1CN(c2cc(S(=O)(=O)NC3(C#N)CC3)cn3c(-c4nnc(C(F)F)s4)ncc23)CCN1C(=O)C1(C)CC1 [Example 86, (S)-N-(1-cyanocyclopropyl)-3-(5-(difluoromethyl)-1,3,4-thiadiazol-2-yl)-8-(3-methyl-4-(1-methylcyclopropane-1-carbonyl)piperazin-1-yl)imidazo[1,5-a]pyridine-6-sulfonamide]
< 100	2.89	18.2	< 100			N#CC1(NS(=O)(=O)c2cc(N3CCC(CO)CC3)c3cnc(-c4nnc(C(F)F)s4)n3c2)CC1 [Example 66, N-(1-cyanocyclopropyl)-3-(5-(difluoromethyl)-1,3,4-thiadiazol-2-yl)-8-(4-(hydroxymethyl)piperidin-1-yl)imidazo[1,5-a]pyridine-6-sulfonamide]
	8.31			208		COCC1CN(c2cc(S(=O)(=O)NC3(C)COC3)cn3c(-c4nnc(C(F)F)s4)ncc23)CCN1 (stereo not drawn) [Example 357, 3-(5-(difluoromethyl)-1,3,4-thiadiazol-2-yl)-8-(3-(methoxymethyl)piperazin-1-yl)-N-(3-methyloxetan-3-yl)imidazo[1,5-a]pyridine-6-sulfonamide]
	550			2830		CCC(=O)C1CCN(c2cc(S(=O)(=O)NC3(C#N)CC3)cn3c(-c4nnc(C(F)(F)F)s4)ncc23)CC1 [Example 258, N-(1-cyanocyclopropyl)-8-(4-propionylpiperidin-1-yl)-3-(5-(trifluoromethyl)-1,3,4-thiadiazol-2-yl)imidazo[1,5-a]pyridine-6-sulfonamide]
	16.5			334		CN1CC(F)(C(=O)N2CCN(c3cc(S(=O)(=O)NC4(C)CC4)cn4c(-c5nnc(C(F)(F)F)s5)ncc34)CC2)C1 [Example 322, 8-(4-(3-fluoro-1-methylazetidine-3-carbonyl)piperazin-1-yl)-N-(1-methylcyclopropyl)-3-(5-(trifluoromethyl)-1,3,4-thiadiazol-2-yl)imidazo[1,5-a]pyridine-6-sulfonamide]
	4.57			360		N#CC1(NS(=O)(=O)c2cc(C3=CCN(C(=O)C4(O)CC4)CC3)c3cnc(-c4nnc(C(F)(F)F)s4)n3c2)CC1 [Example 371, N-(1-cyanocyclopropyl)-8-(1-(1-hydroxycyclopropane-1-carbonyl)-1,2,3,6-tetrahydropyridin-4-yl)-3-(5-(trifluoromethyl)-1,3,4-thiadiazol-2-yl)imidazo[1,5-a]pyridine-6-sulfonamide]
	55			362		N#CC1(NS(=O)(=O)c2cc(N3CCN(C(=O)C4C5COCC54)CC3)c3cnc(-c4nnc(C(F)(F)F)s4)n3c2)CC1 (stereo not drawn) [Example 297, 8-(4-(3-oxabicyclo[3.1.0]hexane-6-carbonyl)piperazin-1-yl)-N-(1-cyanocyclopropyl)-3-(5-(trifluoromethyl)-1,3,4-thiadiazol-2-yl)imidazo[1,5-a]pyridine-6-sulfonamide]
	38			1280		CN(C)CC(=O)N1CCN(c2cc(S(=O)(=O)NC3(C#N)CC3)cn3c(-c4nnc(C(F)(F)F)s4)ncc23)CC1 [Example 250, N-(1-cyanocyclopropyl)-8-(4-(dimethylglycyl)piperazin-1-yl)-3-(5-(trifluoromethyl)-1,3,4-thiadiazol-2-yl)imidazo[1,5-a]pyridine-6-sulfonamide]
< 100	34.1			5000 to 30000	9940	N#CC1(NS(=O)(=O)c2cc(N3CCN(C4COC4)CC3)c3cnc(-c4nnc(C(F)F)s4)n3c2)CC1 [Example 147, N-(1-cyanocyclopropyl)-3-(5-(difluoromethyl)-1,3,4-thiadiazol-2-yl)-8-(4-(oxetan-3-yl)piperazin-1-yl)imidazo[1,5-a]pyridine-6-sulfonamide]
	1.21			55.6		COC(C)C(=O)N1CCN(c2cc(S(=O)(=O)NC3(C)CC3)cn3c(-c4nnc(C(F)(F)F)s4)ncc23)CC1 (stereo not drawn) [Example 328, 8-(4-(2-methoxypropanoyl)piperazin-1-yl)-N-(1-methylcyclopropyl)-3-(5-(trifluoromethyl)-1,3,4-thiadiazol-2-yl)imidazo[1,5-a]pyridine-6-sulfonamide]
	45.7			3000		N#CC1(NS(=O)(=O)c2cc(N3CCNCC3)c3cnc(-c4nnc(C(F)(F)F)s4)n3c2)CC1 [Example 233, N-(1-cyanocyclopropyl)-8-(piperazin-1-yl)-3-(5-(trifluoromethyl)-1,3,4-thiadiazol-2-yl)imidazo[1,5-a]pyridine-6-sulfonamide]
	871			200		COc1ccc(C(=O)/C=C/C(=O)N2CCN(c3cc(S(=O)(=O)NC4CC4)cn4c(-c5nnc(C(F)(F)F)s5)ncc34)CC2)cc1 [Example 243, (E)-N-cyclopropyl-8-(4-(4-(4-methoxyphenyl)-4-oxobut-2-enoyl)piperazin-1-yl)-3-(5-(trifluoromethyl)-1,3,4-thiadiazol-2-yl)imidazo[1,5-a]pyridine-6-sulfonamide]
	31.6			1200		N#CC1(NS(=O)(=O)c2cc(N3CCC(n4cncn4)CC3)c3cnc(-c4nnc(C(F)(F)F)s4)n3c2)CC1 [Example 213, 8-(4-(1H-1,2,4-triazol-1-yl)piperidin-1-yl)-N-(1-cyanocyclopropyl)-3-(5-(trifluoromethyl)-1,3,4-thiadiazol-2-yl)imidazo[1,5-a]pyridine-6-sulfonamide]

Compound	IC50 (PARG; [2]) [nM]	IC50 (PARG; PARG, TFMU-ADPr substrate) [nM]	IC50 [1, 3] [nM]	IC50 [1, 4] [nM]	IC50 (HCC1806; Homo sapiens, HCC1806, 168 h) [nM]	IC50 (HCC1806) [nM]
CC1(C(=O)N2C3CC2CN(c2cc(S(=O)(=O)NC4(C#N)CC4)cn4c(-c5nnc(C(F)F)s5)ncc24)C3)CC1 [Example 87, N-(1-cyanocyclopropyl)-3-(5-(difluoromethyl)-1,3,4-thiadiazol-2-yl)-8-(6-(1-methylcyclopropane-1-carbonyl)-3,6-diazabicyclo[3.1.1]heptan-3-yl)imidazo[1,5-a]pyridine-6-sulfonamide]	< 100	7.24	49.9	< 100		

Reference: patent US20260258035A1, “FIVE-MEMBERED AND SIX-MEMBERED NITROGEN-CONTAINING COMPOUND, AND INTERMEDIATE, PREPARATION METHOD AND USE THEREOF” (HANGZHOU SYNRX THERAPEUTICS BIOMEDICAL TECHNOLOGY CO., LTD., priority 2022, published 2026)
